Like-named read-outs stand apart in the source and are kept apart here.

From patent publication US20030060463A1, “Preparation of topical regional compositions for the relief of pain” (priority 1995, published 2003) come the findings set out here.

The subject of this assay is pain due to nerve injury (SMP). In kind it is in vivo, human.

Excerpt: The purpose of this study was to evaluate and compare the safety and efficacy in the application of five topical compositions prepared with three active ingredients and applied singly or in combinations for the purpose of relief of sympathetically mediated pain (SMP).
The study size was a total of thirty four volunteer subjects; fifteen female and nineteen male volunteer subjects. Their ages ranged from 29 to 84 with a mean of 52 years of age. All subjects were diagnosed with severe sympathetically mediated pain.
Three different therapeutically active agents were utilized, alone or in combination, in preparations of lecithin matrix gels.
A different composition was applied each treatment day to the area of maximum pain. The patients were asked to indicate the level of their pain immediately prior to the application of the compositions, and then at intervals of 5, 10, 15 minutes, 1, 2 and 3 hours after receiving treatment. Pain intensity was measured using the scale below.
SIGNIFICANT PAIN RELIEF WAS DEFINED AS >50% PAIN RELIEF SUSTAINED GREATER THAN 2 HOURS. For example, if a given patient rated their pain immediately prior to application of the compositions as “very intense”, they would get a 1.8 score per the scale. […]

Take `CN(C)CCC=C1c2ccccc2CCc2ccccc21` [amitriptylline]: where the note is “human, in vivo”, the “Safety and efficacy in clinical trials at other dosages” value is “safe and effective”. For the compound `CNC1(c2ccccc2Cl)CCCCC1=O` (centres unmarked) [ketamine], the “Safety and efficacy in clinical trials at other dosages” value (dosage between 0.05% to 2% of the topical composition) was “safe and effective”.
